Measured values taken from PubChem BioAssay (NCI).
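All cell lines were grown in 96-well plates and treated with compound for 48 hours. GI50 marks 50% less growth. At the TGI there is no net growth.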

Legend:
Assay in all cases: NCI tumour cell line growth inhibition, 48 h
[1] = tested on: SF-268 CNS
[2] = tested on: SK-MEL-2 melanoma
[3] = tested on: KM12 colon
[4] = tested on: T-47D breast
[5] = tested on: MCF7 breast
[6] = tested on: CAKI-1 renal
[7] = tested on: SF-295 CNS
[8] = tested on: BT-549 breast
[9] = tested on: U251 CNS
[10] = tested on: HT29 colon
[11] = tested on: HCC-2998 colon
[12] = tested on: SW-620 colon
[13] = tested on: SF-539 CNS
[14] = tested on: HOP-62 NSCLC
[15] = tested on: A498 renal
[16] = tested on: RPMI-8226 leukemia
[17] = tested on: NCI-H23 lung
[18] = tested on: NCI/ADR-RES ovarian
[19] = tested on: ACHN renal
[20] = tested on: UACC-62 melanoma
[21] = tested on: PC-3 prostate
[22] = tested on: SK-MEL-5 melanoma
[23] = tested on: MOLT-4 leukemia
[24] = tested on: M14 melanoma
[25] = tested on: RXF 393 renal
[26] = tested on: SK-MEL-28 melanoma
[27] = tested on: MDA-MB-231 breast
[28] = tested on: HOP-92 NSCLC
[29] = tested on: HCT-116 colon
[30] = tested on: OVCAR-4 ovarian
[31] = tested on: K-562 leukemia
[32] = tested on: HCT-15 colon
[33] = tested on: UO-31 renal
[34] = tested on: SNB-19 CNS
[35] = tested on: HS 578T breast
[36] = tested on: IGROV1 ovarian
[37] = tested on: TK-10 renal
[38] = tested on: OVCAR-8 ovarian
[39] = tested on: SK-OV-3 ovarian
[40] = tested on: MDA-MB-435
[41] = tested on: SR leukemia
[42] = tested on: 786-0 renal
[43] = tested on: SNB-75 CNS
[44] = tested on: EKVX NSCLC
[45] = tested on: NCI-H460 lung
[46] = tested on: HL-60(TB) leukemia
[47] = tested on: UACC-257 melanoma
[48] = tested on: NCI-H226 lung
[49] = tested on: CCRF-CEM leukemia
[50] = tested on: LOX IMVI melanoma
[51] = tested on: COLO 205 colon
[52] = tested on: DU-145 prostate
[53] = tested on: OVCAR-3 ovarian
[54] = tested on: OVCAR-5 ovarian
[55] = tested on: A549 NSCLC
[56] = tested on: SN12C renal
[57] = tested on: MALME-3M melanoma
[58] = tested on: NCI-H522 lung

Compound: COc1cc(OC)cc(Oc2nc3c(N)cc(C(F)(F)F)cc3nc2-c2ccccc2)c1
- TGI [1]: > 100 µM
- TGI [2]: 55.5 µM
- TGI [3]: 50.3 µM
- TGI [4]: 8.91 µM
- TGI [5]: 99 µM
- TGI [6]: > 100 µM
- TGI [7]: > 100 µM
- TGI [8]: > 100 µM
- TGI [9]: > 100 µM
- TGI [10]: > 100 µM
- TGI [11]: > 100 µM
- TGI [12]: > 100 µM
- TGI [13]: > 100 µM
- TGI [14]: > 100 µM
- TGI [15]: > 100 µM
- TGI [16]: 77.7 µM
- TGI [17]: > 100 µM
- TGI [18]: > 100 µM
- TGI [19]: > 100 µM
- TGI [20]: > 100 µM
- TGI [21]: > 100 µM
- TGI [22]: > 100 µM
- TGI [23]: 81.1 µM
- TGI [24]: > 100 µM
- TGI [25]: > 100 µM
- TGI [26]: > 100 µM
- TGI [27]: 98.7 µM
- TGI [28]: > 100 µM
- TGI [29]: > 100 µM
- TGI [30]: > 100 µM
- TGI [31]: 31.4 µM
- TGI [32]: 55.9 µM
- TGI [33]: > 100 µM
- TGI [34]: > 100 µM
- TGI [35]: > 100 µM
- TGI [36]: > 100 µM
- TGI [37]: > 100 µM
- TGI [38]: > 100 µM
- TGI [39]: > 100 µM
- TGI [40]: 66.5 µM
- TGI [41]: 75.7 µM
- TGI [42]: > 100 µM
- TGI [43]: > 100 µM
- TGI [44]: > 100 µM
- TGI [45]: > 100 µM
- TGI [46]: 52.4 µM
- TGI [47]: > 100 µM
- TGI [48]: > 100 µM
- TGI [49]: > 100 µM
- TGI [50]: 45.9 µM
- TGI [51]: 64.3 µM

Compound: CC1(C)N=C(N)N=C(N)N1c1ccc(CCC(=O)Nc2cccc(S(=O)(=O)F)c2)cc1
- GI50 [1]: 4.74 µM
- TGI [1]: > 100 µM
- GI50 [2]: 10.8 µM
- TGI [2]: > 100 µM
- GI50 [3]: 10.6 µM
- TGI [3]: > 100 µM
- GI50 [52]: 5.81 µM
- TGI [52]: > 100 µM
- GI50 [4]: 68.7 µM
- TGI [4]: > 100 µM
- GI50 [5]: 6.48 µM
- TGI [5]: > 100 µM
- GI50 [6]: > 100 µM
- TGI [6]: > 100 µM
- GI50 [7]: 7.75 µM
- TGI [7]: > 100 µM
- GI50 [8]: 7.21 µM
- TGI [8]: > 100 µM
- GI50 [53]: 54.1 µM
- TGI [53]: > 100 µM
- GI50 [9]: 4.98 µM
- TGI [9]: > 100 µM
- GI50 [10]: 5.62 µM
- TGI [10]: > 100 µM
- GI50 [12]: 5.87 µM
- TGI [12]: > 100 µM
- GI50 [13]: 5.65 µM
- TGI [13]: > 100 µM
- GI50 [14]: 6.56 µM
- TGI [14]: > 100 µM
- GI50 [15]: 20.1 µM
- TGI [15]: > 100 µM
- GI50 [16]: 36.4 µM
- TGI [16]: > 100 µM
- GI50 [17]: 7.78 µM
- TGI [17]: > 100 µM
- GI50 [18]: > 100 µM
- TGI [18]: > 100 µM
- GI50 [19]: 52.5 µM
- TGI [19]: > 100 µM
- GI50 [20]: 5.3 µM
- TGI [20]: > 100 µM
- GI50 [54]: > 100 µM
- TGI [54]: > 100 µM
- GI50 [21]: 597 nM
- TGI [21]: > 100 µM
- GI50 [22]: 4.83 µM
- TGI [22]: > 100 µM
- GI50 [23]: 19.8 µM
- TGI [23]: > 100 µM
- GI50 [24]: 6.69 µM
- TGI [24]: > 100 µM
- GI50 [25]: 56.8 µM
- TGI [25]: > 100 µM
- GI50 [26]: 81.1 µM
- TGI [26]: > 100 µM
- GI50 [27]: 86.8 µM
- TGI [27]: > 100 µM
- GI50 [28]: > 100 µM
- TGI [28]: > 100 µM
- GI50 [29]: 3.96 µM
- TGI [29]: > 100 µM
- GI50 [30]: > 100 µM
- TGI [30]: > 100 µM
- GI50 [31]: 1350 nM
- TGI [31]: > 100 µM
- GI50 [55]: 3.32 µM
- TGI [55]: > 100 µM
- GI50 [32]: 30.7 µM
- TGI [32]: > 100 µM
- GI50 [33]: 13.2 µM
- TGI [33]: > 100 µM
- GI50 [34]: 7.37 µM
- TGI [34]: > 100 µM
- GI50 [56]: 4.67 µM
- TGI [56]: > 100 µM
- GI50 [35]: > 100 µM
- TGI [35]: > 100 µM
- GI50 [36]: 1090 nM
- TGI [36]: 5 µM
- GI50 [37]: 5.57 µM
- TGI [37]: > 100 µM
- GI50 [38]: 6.46 µM
- TGI [38]: > 100 µM
- GI50 [39]: > 100 µM
- TGI [39]: > 100 µM
- GI50 [40]: 4.9 µM
- TGI [40]: > 100 µM
- GI50 [42]: 3.89 µM
- TGI [42]: > 100 µM
- GI50 [43]: 5.34 µM
- TGI [43]: > 100 µM
- GI50 [44]: > 100 µM
- TGI [44]: > 100 µM
- GI50 [45]: 3.04 µM
- TGI [45]: > 100 µM
- GI50 [46]: 2860 nM
- TGI [46]: > 100 µM
- GI50 [47]: 4.09 µM
- TGI [47]: > 100 µM
- GI50 [48]: > 100 µM
- TGI [48]: > 100 µM
- GI50 [50]: 3.54 µM
- TGI [50]: > 100 µM
- GI50 [57]: 21.3 µM
- TGI [57]: > 100 µM
- GI50 [51]: 41.1 µM
- TGI [51]: > 100 µM

Compound: N#CC1C(=O)NC(=O)C(C#N)C1c1ccc(Cl)c(Cl)c1 (stereo unspecified)
- TGI [1]: > 100 µM
- TGI [2]: > 100 µM
- TGI [3]: > 100 µM
- TGI [52]: > 100 µM
- TGI [4]: > 100 µM
- TGI [5]: > 100 µM
- TGI [6]: 71.6 µM
- TGI [7]: > 100 µM
- TGI [8]: > 100 µM
- TGI [53]: 67 µM
- TGI [9]: 51.5 µM
- TGI [10]: 33 µM
- TGI [12]: 36.8 µM
- TGI [13]: 42.6 µM
- TGI [14]: 43.4 µM
- TGI [17]: 49.2 µM
- TGI [18]: 83.1 µM
- TGI [19]: 50.9 µM
- TGI [54]: 68.6 µM
- TGI [21]: > 100 µM
- TGI [22]: 48.3 µM
- TGI [23]: 62 µM
- TGI [24]: 56 µM
- TGI [25]: 50.5 µM
- TGI [26]: > 100 µM
- TGI [27]: > 100 µM
- TGI [58]: 38 µM
- TGI [28]: > 100 µM
- TGI [29]: 29.7 µM
- TGI [30]: > 100 µM
- TGI [31]: 85.8 µM
- TGI [55]: > 100 µM
- TGI [32]: 46.1 µM
- TGI [33]: 33.2 µM
- TGI [34]: > 100 µM
- TGI [35]: 65.6 µM
- TGI [36]: 47.3 µM
- TGI [37]: 98.4 µM
- TGI [38]: > 100 µM
- TGI [39]: > 100 µM
- TGI [40]: 49 µM
- TGI [41]: 41.6 µM
- TGI [42]: 41.7 µM
- TGI [43]: 74.2 µM
- TGI [44]: > 100 µM
- TGI [45]: > 100 µM
- TGI [46]: > 100 µM
- TGI [47]: 86.7 µM
- TGI [49]: 31.9 µM
- TGI [50]: 34.4 µM
- TGI [57]: > 100 µM
- TGI [51]: > 100 µM
